Source: patent publication US11559510B2, “Isoflavonoid composition with improved pharmacokinetics” (NOXOPHARM LIMITED, priority 2016, dated 2023)
Like-named read-outs stand apart in the source and are kept apart here.

Experiment: Plasma pharmacokinetic studies of idronoxil in rats (rectal in cocoa butter vs intestinal in lipid emulsion)
Format: in vivo, Male Sprague-Dawley rats
Conditions: for Peak Area in rat plasma, Rat 2 / Peak Area in rat plasma, Rat 1 / Peak Area in rat plasma, Rat 3 / half-life / concentration at 0 h / concentration at 1 h / concentration at 2 h / concentration at 3 h / concentration at 4 h / concentration at 5 h / concentration at 6 h / concentration at 7 h / concentration at 8 h: 10 mg/kg; for half-life / concentration at 0 h / concentration at 1 h / concentration at 2 h / concentration at 3 h / concentration at 4 h / concentration at 5 h / concentration at 6 h / concentration at 7 h / concentration at 8 h: male, Sprague-Dawley, rat, plasma
Procedure: The objective of this study in rodents is to determine the plasma pharmacokinetics of idronoxil after rectal delivery and intestinal delivery in lipids (cocoa butter or emulsion).
Part (1); n=3 rats: Rectal administration of idronoxil in cocoa butter liquid formulation, collection of plasma.
Part (2); n=3 rats: Intestinal administration (intraduodenal infusion) of idronoxil in lipid formulation, collection of plasma.
3 mg idronoxil per rat (equivalent to 10 mg/kg idronoxil).
Preparation of lipid formulation for intestinal dosing: Briefly, 3 mg of idronoxil, 80 mg oleic acid and 50 mg Tween 80 were mixed in a glass vial as the lipid phase. An aqueous phase consisting of 5.6 mL phosphate buffered saline (PBS, pH 7.4) was subsequently added to the lipid phase and the formulation emulsified by ultrasonication with a Misonix XL 2020 ultrasonic processor equipped with a 3.2-mm microprobe tip running at an amplitude of 240 μm and a frequency of 20 kHz for 4 min at room temperature.
Dose administration: The lipid formulations were infused into the duodenum of the rats at 2.8 mL/h for 2 h. After that, normal saline was infused into the duodenum at 2.8 mL/h for the remainder of the experiment to hydrate the animals.
Preparation of cocoa butter formulation for rectal dosing: Briefly, 100 mg of the cocoa butter was weighed into a homogenizer glass tube and melted at 32 degrees Celsius. 3 mg of idronoxil was then added and the formulation mixed manually with the homogenizer.
Dose administration: The warmed/melted cocoa butter formulations were dosed into the rectum via placing the tip of a 3 cm plastic mouse oral gavage device attached to a 1 ml plastic syringe exactly 1 cm into the rectum. The formulation was dosed over 15 sec. After that, normal saline was infused into the duodenum at 2.8 mL/h for the remainder of the experiment to hydrate the animals.
Male Sprague-Dawley rats (n=3 per group, body weight 300±40 g) were used in the study. Each animal was fasted overnight prior to surgical cannulation of the carotid artery and duodenum.
The rats were anaesthetized (using isoflurane anesthesia), placed on a heated pad at 37° C. and cannulas were inserted into the duodenum (for dosing of lipid formulation and rehydration) and carotid artery (for blood collection).
Post-surgery, rats were re-hydrated for 0.5 h via intraduodenal infusion of normal saline at 2.8 mL/h prior to dosing via intraduodenal or rectal route.
Plasma collection: Plasma samples were collected for 8 h into Eppendorf tubes containing 5 μL of 1,000 IU/mL heparin. Aliquots (20 μL) of each hourly collected samples were transferred into labelled 1.5 mL Eppendorf tubes. Aliquoted and original bulk samples were stored at −20° C. until analysis.
Sample analysis: Plasma concentrations of idronoxil were measured by the HMST-lab using a validated HPLC-MS/MS method. Briefly, LC-MS analysis was performed on a Shimadzu 8050 triple quadrupole mass spectrometer coupled with a Shimadzu Nexera X2 UHPLC. MS analysis was conducted in positive mode electrospray ionisation and quantitation of the analytes performed in MRM mode. The column employed was a Phenomenex Kinetex EVO C18 column (2.6 μm particle size, 50×2.1 mm i.d.) equipped with a Phenomenex Security Guard column with C18 packing material. The column was maintained at 40-C. The mobile phase consisted of 0.2% formic acid in water (Mobile Phase A) and 100% acetonitrile (Mobile Phase B). Separations were conducted using a flow rate of 0.4 mL/min and an injection volume of 6 μL. Samples were controlled in the autosampler at a temperature of 10° C.
Non-compartmental pharmacokinetic (PK) analysis: The elimination rate constant (slope), half-life (i.e., 0.693/k), and mean residence time (MRT) were calculated using excel. The area under the plasma-concentration time curves from time zero to 8 h (AUC0-8 h) were calculated using the trapezoid rule to the last measured time point.

[1] = Intestinal administration of idronoxil, lipid emulsion, 1 hrs
[2] = Intestinal administration of idronoxil, lipid emulsion, 2 hrs
[3] = Intestinal administration of idronoxil, lipid emulsion, 3 hrs
[4] = Intestinal administration of idronoxil, lipid emulsion, 4 hrs
[5] = Intestinal administration of idronoxil, lipid emulsion, 5 hrs
[6] = Intestinal administration of idronoxil, lipid emulsion, 6 hrs
[7] = Intestinal administration of idronoxil, lipid emulsion, 7 hrs
[8] = Intestinal administration of idronoxil, lipid emulsion, 8 hrs
[9] = Rectal administration of idronoxil, cocoa butter, 1 hrs
[10] = Rectal administration of idronoxil, cocoa butter, 2 hrs
[11] = Rectal administration of idronoxil, cocoa butter, 3 hrs
[12] = Rectal administration of idronoxil, cocoa butter, 4 hrs
[13] = Rectal administration of idronoxil, cocoa butter, 5 hrs
[14] = Rectal administration of idronoxil, cocoa butter, 6 hrs
[15] = Rectal administration of idronoxil, cocoa butter, 7 hrs
[16] = Rectal administration of idronoxil, cocoa butter, 8 hrs
[17] = intestinally-dosed rats compared with rectally-dosed rats
[18] = oral delivery (intestinal delivery model)
[19] = other: intraduodenal infusion, Intestinal delivery (intraduodenal infusion), lipid emulsion, read-out: Idronoxil Plasma Concentration Mean
[20] = other: intraduodenal infusion, Intestinal delivery (intraduodenal infusion), lipid emulsion, read-out: Idronoxil Plasma Concentration Rat 2
[21] = other: intraduodenal infusion, Intestinal delivery (intraduodenal infusion), lipid emulsion, read-out: Idronoxil Plasma Concentration Rat 1
[22] = other: intraduodenal infusion, Intestinal delivery (intraduodenal infusion), lipid emulsion, read-out: Idronoxil Plasma Concentration Rat 3
[23] = other: rectal, Rectal delivery, cocoa butter, read-out: Idronoxil Plasma Concentration Mean
[24] = other: rectal, Rectal delivery, cocoa butter, read-out: Idronoxil Plasma Concentration Rat 1
[25] = other: rectal, Rectal delivery, cocoa butter, read-out: Idronoxil Plasma Concentration Rat 2
[26] = other: rectal, Rectal delivery, cocoa butter, read-out: Idronoxil Plasma Concentration Rat 3

Oc1ccc(C2=Cc3ccc(O)cc3OC2)cc1 [Idronoxil, 2H-1-Benzopyran-7-0,1,3-(4-hydroxyphenyl)]
Peak Area in rat plasma, Rat 2 (Intestinal administration of idronoxil, lipid emulsion, 0 hrs): 62,126 | Peak Area in rat plasma, Rat 1 [1]: 236,465 | Peak Area in rat plasma, Rat 2 [1]: 184,114 | Peak Area in rat plasma, Rat 3 [1]: 222,037 | Peak Area in rat plasma, Rat 1 [2]: 335,894 | Peak Area in rat plasma, Rat 2 [2]: 238,289 | Peak Area in rat plasma, Rat 3 [2]: 237,900 | Peak Area in rat plasma, Rat 1 [3]: 34,094 | Peak Area in rat plasma, Rat 2 [3]: 71,267 | Peak Area in rat plasma, Rat 3 [3]: 32,152 | Peak Area in rat plasma, Rat 1 [4]: 25,198 | Peak Area in rat plasma, Rat 2 [4]: 14,571 | Peak Area in rat plasma, Rat 3 [4]: 13,053 | Peak Area in rat plasma, Rat 1 [5]: 26,342 | Peak Area in rat plasma, Rat 2 [5]: 10,183 | Peak Area in rat plasma, Rat 3 [5]: 13,297 | Peak Area in rat plasma, Rat 1 [6]: 6,108 | Peak Area in rat plasma, Rat 2 [6]: 8,531 | Peak Area in rat plasma, Rat 3 [6]: 17,321 | Peak Area in rat plasma, Rat 1 [7]: 8,023 | Peak Area in rat plasma, Rat 2 [7]: 14,276 | Peak Area in rat plasma, Rat 3 [7]: 8,371 | Peak Area in rat plasma, Rat 1 [8]: 13,012 | Peak Area in rat plasma, Rat 2 [8]: 9,110 | Peak Area in rat plasma, Rat 3 [8]: 8,020 | Peak Area in rat plasma, Rat 1 [9]: 57,590 | Peak Area in rat plasma, Rat 2 [9]: 213,825 | Peak Area in rat plasma, Rat 3 [9]: 46,167 | Peak Area in rat plasma, Rat 1 [10]: 37,493 | Peak Area in rat plasma, Rat 2 [10]: 179,554 | Peak Area in rat plasma, Rat 3 [10]: 50,847 | Peak Area in rat plasma, Rat 1 [11]: 37,603 | Peak Area in rat plasma, Rat 2 [11]: 152,537 | Peak Area in rat plasma, Rat 3 [11]: 45,812 | Peak Area in rat plasma, Rat 1 [12]: 34,050 | Peak Area in rat plasma, Rat 2 [12]: 117,814 | Peak Area in rat plasma, Rat 3 [12]: 49,738 | Peak Area in rat plasma, Rat 1 [13]: 61,323 | Peak Area in rat plasma, Rat 2 [13]: 153,360 | Peak Area in rat plasma, Rat 3 [13]: 75,786 | Peak Area in rat plasma, Rat 1 [14]: 41,246 | Peak Area in rat plasma, Rat 2 [14]: 114,191 | Peak Area in rat plasma, Rat 3 [14]: 42,370 | Peak Area in rat plasma, Rat 1 [15]: 46,844 | Peak Area in rat plasma, Rat 2 [15]: 100,506 | Peak Area in rat plasma, Rat 3 [15]: 25,104 | Peak Area in rat plasma, Rat 1 [16]: 14,934 | Peak Area in rat plasma, Rat 2 [16]: 80,236 | Peak Area in rat plasma, Rat 3 [16]: 40,752 | amount of idronoxil observed in plasma, rectal relative to oral administration (at 3 to 4 hours after administration): 3 to 4 times | time for which blood levels >20 ng/mL were achieved (idronoxil dosed orally (intestinal delivery model)): about 3 hours | time from administration by which the bulk of the total exposure is completed (intestinally-dosed rats): about 3 hours | maximum concentration of free idronoxil [17]: significantly greater | proportion of drug metabolized by Phase 2 metabolism [17]: considerably greater | half-life [18]: ~45 min | half-life (rectal idronoxil): > 480 min | concentration at 0 h [19]: 33.8 ng/mL | concentration at 0 h [20]: 33.8 ng/mL | concentration at 1 h [19]: 118 ng/mL | concentration at 1 h [21]: 114 ng/mL | concentration at 1 h [20]: 114 ng/mL | concentration at 1 h [22]: 128 ng/mL | concentration at 2 h [19]: 158 ng/mL | concentration at 2 h [21]: 200 ng/mL | concentration at 2 h [20]: 140 ng/mL | concentration at 2 h [22]: 136 ng/mL | concentration at 3 h [19]: 24.3 ng/mL | concentration at 3 h [21]: 17.8 ng/mL | concentration at 3 h [20]: 38.2 ng/mL | concentration at 3 h [22]: 16.8 ng/mL | concentration at 4 h [19]: 9.57 ng/mL | concentration at 4 h [21]: 16.1 ng/mL | concentration at 4 h [20]: 7.03 ng/mL | concentration at 4 h [22]: 5.62 ng/mL | concentration at 5 h [19]: 9.27 ng/mL | concentration at 5 h [21]: 17.4 ng/mL | concentration at 5 h [20]: 4.46 ng/mL | concentration at 5 h [22]: 6 ng/mL | concentration at 6 h [19]: 4.79 ng/mL | concentration at 6 h [21]: 2.86 ng/mL | concentration at 6 h [20]: 3.79 ng/mL | concentration at 6 h [22]: 7.72 ng/mL | concentration at 7 h [19]: 5.04 ng/mL | concentration at 7 h [21]: 4.68 ng/mL | concentration at 7 h [20]: 6.75 ng/mL | concentration at 7 h [22]: 3.7 ng/mL | concentration at 8 h [19]: 5.14 ng/mL | concentration at 8 h [21]: 7.83 ng/mL | concentration at 8 h [20]: 4.23 ng/mL | concentration at 8 h [22]: 3.37 ng/mL | concentration at 0 h [23]: 0 ng/mL | concentration at 1 h [23]: 49.4 ng/mL | concentration at 1 h [24]: 26.7 ng/mL | concentration at 1 h [25]: 96.5 ng/mL | concentration at 1 h [26]: 24.9 ng/mL | concentration at 2 h [23]: 42.9 ng/mL | concentration at 2 h [24]: 15.9 ng/mL | concentration at 2 h [25]: 88.1 ng/mL | concentration at 2 h [26]: 24.7 ng/mL | concentration at 3 h [23]: 37.3 ng/mL | concentration at 3 h [24]: 15.9 ng/mL | concentration at 3 h [25]: 74.2 ng/mL | concentration at 3 h [26]: 21.8 ng/mL | concentration at 4 h [23]: 30.1 ng/mL | concentration at 4 h [24]: 14.4 ng/mL | concentration at 4 h [25]: 53.7 ng/mL | concentration at 4 h [26]: 22.3 ng/mL | concentration at 5 h [23]: 46.3 ng/mL | concentration at 5 h [24]: 27.9 ng/mL | concentration at 5 h [25]: 71.4 ng/mL | concentration at 5 h [26]: 39.5 ng/mL | concentration at 6 h [23]: 30.2 ng/mL | concentration at 6 h [24]: 17.8 ng/mL | concentration at 6 h [25]: 51.3 ng/mL | concentration at 6 h [26]: 21.6 ng/mL | concentration at 7 h [23]: 25 ng/mL | concentration at 7 h [24]: 20.6 ng/mL | concentration at 7 h [25]: 43 ng/mL | concentration at 7 h [26]: 11.4 ng/mL | concentration at 8 h [23]: 18.4 ng/mL | concentration at 8 h [24]: 5.74 ng/mL | concentration at 8 h [25]: 33.4 ng/mL | concentration at 8 h [26]: 16.1 ng/mL | time at which drug levels are sub-therapeutic [18]: < 4 h | time within which drug levels substantially fall [18]: 2 to 3 h | plasma concentration (rats, 10 mg/kg body weight, single rectal administration, up to 8 hours): 35 to 40 ng/mL | time for which therapeutic levels of free idronoxil were maintained in the blood (rectal delivery): at least 8 hours | half-life, rectal relative to oral idronoxil (rectal vs oral): at least 5 times | time for which idronoxil levels remain almost constant (steady-state levels) post administration (rectally-dosed rats): at least 8 hours
